The values below come from patent publication US12594281B2, “Pharmaceutical dosage forms and methods of use” (EMALEX BIOSCIENCES, INC., priority 2024, dated 2026).

Molecules are shown by their SMILES. Values joined by “and” are separate entries in the source; they are usually repeats but may differ in a detail not shown here. Identical values can stand only once. Like-named read-outs stand apart in the source and are kept apart here.

One data set addresses ^3H-23390 binding site (Homo sapiens, UniProt P21728). The following applies: read-out: Ki ^3H-23390; cited from earlier work.
The next data set deals with ^3H-Spip binding site (Homo sapiens, UniProt P14416). The following applies: read-out: Ki ^3H-Spip; cited from earlier work.
The nature of data set [1]: BCS solubility of Ecopipam HCl in pH buffers and bio-relevant media. The data set is classed as physicochemical. The settings on record: for solubility at 24 h: 37 °C, thermodynamic from solid; for Solubility / Purity at 24 hours in solubility test: 37° C. The protocol:
Solubility and final pH were the average of three parallel values. Purity was that of 24 hours. N/A means not performed.

The conditions of data set [2]: cited from earlier work.
A short description of data set [3]: Phase 1 absorption, metabolism and excretion study of [14C]-ecopipam, single oral capsule dose. It is filed as in vivo, human.
Excerpt: Healthy subjects of any ethnic origin, aged between 35 and 55 years, inclusive, with a body mass index between 18.0 and 30.0 kg/m^2, inclusive, were selected for the study.
For data set [4] the following is noted: minipig, in vivo.
Excerpt: (§2) The minipigs were 4-5 months old with a weight range within 10-15 kg at dosing. 3 male animals were used.
(§3) The concentration-time data were normalized for differences in dose.
A short description of data set [5]: Clinical drug-drug interaction study with rifampicin (EBS-101-HV-106). The following applies: rifampicin co-administered with oral ecopipam. It is filed as in vivo, human. The source says: (§1) The results from these studies are summarized in Table 7 below along with clinical recommendations.
A short description of data set [6]: Clinical drug-drug interaction study with divalproate sodium, general UGT inhibitor (EBS-101-HV-102). The data set is classed as in vivo, human. The settings on record: divalproate sodium co-administered with oral ecopipam.
Excerpt: as §1

A short description of data set [7]: Clinical drug-drug interaction study with mefenamic acid, specific UGT1A9 inhibitor (EBS-101-HV-102). The following applies: mefenamic acid co-administered with oral ecopipam. It is filed as in vivo, human.
Excerpt: as §1

Data set [8] is described as follows: Pharmacokinetics of sublingual vs oral tablet in minipigs.
Excerpt: as §2, §3
Data set [9] is described as follows: Phase 2 exposure-response for efficacy in Tourette's Disorder. It is filed as in vivo, human. The following applies: logistic regression model.
A short description of data set [10]: Thorough QT study with C-QT analysis (EBS-101-HV-105). It is filed as in vivo, human. The following applies: for 10 msec increase in ΔΔQTcF interval: primary model. The protocol: A randomized, double-blind, single dose, 4-way crossover thorough QT study was conducted with an open-label active control (EBS-101-HV-105, 2024).
The primary endpoint for this study was pre-specified to be based on C-QT analysis using the methods outlined in the white paper (Garnett C, 2018) (Garnett C B. P., 2018).

Data set [11] is described as follows: Exposure-response analyses for safety (sedation, QTc). The arrangement: species or system human. The settings on record: in vivo. The text has this: Exposure-response analyses have been conducted for safety using sedation as an endpoint and cardiac safety (QTc).
[12] abbreviates: single oral dose 200 mg, fasted.
[13] abbreviates: after single oral dose of [14C]-ecopipam HCl.
The mark [14] stands for this setting: minipig, dose-normalized, Zydis ODT 25 mg sublingual vs IR tablet 50 mg oral (ecopipam HCl).
Setting [15] is: single oral dose 200 mg [14C]-ecopipam HCl.
The mark [16] stands for this setting: single dose of ecopipam 537.6 mg.

^3H-Spip binding site, sequence (P14416 whole entry): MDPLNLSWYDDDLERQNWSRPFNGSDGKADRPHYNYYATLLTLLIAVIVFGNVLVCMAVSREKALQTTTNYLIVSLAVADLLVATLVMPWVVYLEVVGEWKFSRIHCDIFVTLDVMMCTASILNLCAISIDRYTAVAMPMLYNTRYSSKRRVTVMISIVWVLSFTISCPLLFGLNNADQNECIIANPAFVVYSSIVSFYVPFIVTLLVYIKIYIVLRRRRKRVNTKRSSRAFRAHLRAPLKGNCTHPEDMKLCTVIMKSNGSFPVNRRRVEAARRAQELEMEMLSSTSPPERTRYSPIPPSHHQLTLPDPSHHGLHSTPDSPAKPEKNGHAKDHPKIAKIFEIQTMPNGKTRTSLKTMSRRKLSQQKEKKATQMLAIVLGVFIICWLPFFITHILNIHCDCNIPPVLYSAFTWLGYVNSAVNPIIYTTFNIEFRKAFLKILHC
^3H-23390 binding site, sequence (P21728 whole entry): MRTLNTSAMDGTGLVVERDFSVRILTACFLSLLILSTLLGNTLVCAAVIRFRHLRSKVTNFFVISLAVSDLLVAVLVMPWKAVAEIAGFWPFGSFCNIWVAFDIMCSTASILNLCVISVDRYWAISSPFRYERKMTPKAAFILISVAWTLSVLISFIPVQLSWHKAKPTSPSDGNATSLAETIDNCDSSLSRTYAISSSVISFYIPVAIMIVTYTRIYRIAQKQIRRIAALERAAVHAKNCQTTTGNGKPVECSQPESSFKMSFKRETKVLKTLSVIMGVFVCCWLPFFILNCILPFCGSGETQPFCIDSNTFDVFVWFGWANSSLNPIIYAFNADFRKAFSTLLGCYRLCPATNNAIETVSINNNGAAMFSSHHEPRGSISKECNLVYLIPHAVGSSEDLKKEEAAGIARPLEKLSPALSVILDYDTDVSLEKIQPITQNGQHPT

`CN1CCc2ccc(O)cc2C2c3ccccc3CCC21` (stereo not drawn) [CH2/1/trans/H/OH]: the Ki on ^3H-23390 binding site is 0.03 µM; on ^3H-Spip binding site it was 3.5 µM.

As to `CN1CCc2cc(Cl)c(O)cc2[C@H]2c3ccccc3CC[C@@H]21.Cl` [Ecopipam HCl], the solubility at 24 h was 1560 µg/mL in data set [1] (pH 1.2, simulated gastric fluid, pH 1.2 HCl buffer, 50 mM, up to 24 hours, final pH 1.23); 2000 µg/mL in data set [1] (pH 1.61, fassgf or other biorelevant, FaSSGF, final pH 1.61); 9400 µg/mL in [1] (pH 3, aqueous buffer, pH 3.0 citrate buffer, 100 mM, up to 24 hours, final pH 2.96); 8 µg/mL in data set [1] (pH 3, aqueous buffer, pH 3.0 phthalate buffer, 50 mM, up to 24 hours, final pH 3.05); 3300 µg/mL in [1] (pH 4.5, aqueous buffer, pH 4.5 acetate buffer, 50 mM, up to 24 hours, final pH 4.50); 230 µg/mL in data set [1] (pH 5.5, aqueous buffer, pH 5.5 acetate buffer, 50 mM, up to 24 hours, final pH 5.49). The solubility at 24 h was determined as 660 µg/mL in [1] (pH 5.84, fessif, FeSSIF-V2, final pH 5.84); 50 µg/mL in data set [1] (pH 6.49, fassif, FaSSIF-V2, final pH 6.49); 20 µg/mL in [1] (pH 6.8, aqueous buffer, pH 6.8 phosphate buffer, 50 mM, up to 24 hours, final pH 6.85). Moreover, the Solubility was 2020 µg/mL in data set [1] (FaSSGF, final pH 1.61) and 9420 µg/mL in [1] (pH 3.0 citrate buffer, 100 mM, up to 24 hours, final pH 2.96). Also, the “XRPD (crystalline form after solubility test)” value in data set [1] (FaSSIF-V2) was “Changed”; in [1] (FeSSIF-V2), “Changed”; in [1] (pH 3.0 citrate buffer, 100 mM), “did not exhibit a change in crystallinity”; in [1] (pH 3.0 phthalate buffer, 50 mM) it was “Changed”; in data set [1] (pH 4.5 acetate buffer, 50 mM), “Changed”; in data set [1] (pH 5.5 acetate buffer, 50 mM) it was “Changed”. For the same molecule, the “XRPD (crystalline form after solubility test)” value in [1] (pH 6.8 phosphate buffer, 50 mM) is “Changed”. For the same molecule, the “Time stable in bio-relevant media” value in data set [1] (bio-relevant media at 37° C., degradation occurred from 3 hours) is “up to 1 hour”. The “Purity at 24 hours in solubility test” value in data set [1] (pH 1.2 HCl buffer, 50 mM) is reported as 99.87%; in data set [1] (pH 3.0 citrate buffer, 100 mM), 99.87%; in data set [1] (pH 4.5 acetate buffer, 50 mM), 99.85%; in data set [1] (pH 5.5 acetate buffer, 50 mM), 100.00%; in [1] (pH 6.8 phosphate buffer, 50 mM) it was 100.00%.

For the molecule `CN1CCc2cc(Cl)c(N)cc2C2c3ccccc3CCC21` (stereo not drawn) [CH2/1/trans/Cl/NH2], the inhibition constant (Ki) on ^3H-23390 binding site was 0.07 µM; on ^3H-Spip binding site it was 4.17 µM. The “CAR (MED)” value in [2] (po) is 3 (po).

With `Cc1cc2c(cc1O)C1c3ccccc3CCC1N(C)CC2` (stereo not drawn) [CH2/1/trans/CH3/OH], the inhibitory constant (Ki) was 0.119 µM on ^3H-23390 binding site and 7.2 µM at ^3H-Spip binding site.

Take `CN1CCc2ccc(O)cc2C2c3ccccc3OCC21` (stereo not drawn) [O/1/trans/H/OH]: on ^3H-23390 binding site, the Ki is 0.121 µM.

On to `CN1CCc2cc(Cl)c(O)cc2[C@H]2c3ccccc3CC[C@@H]21` [CH2/1/7b(R):7a(S)(−)/Cl/OH], for which the “CAR (MED)” value in data set [2] (po) is given as 30 (po).

With `COc1cc2c(cc1O)C1c3ccccc3CCC1N(C)CC2` (stereo not drawn) [CH2/1/trans/CH3O/OH], the Ki on ^3H-23390 binding site was 0.023 µM; on ^3H-Spip binding site, 2.5 µM. For the same molecule, the figures for the “CAR (MED)” value in data set [2] (po) and in [2] (sc) were 30 (po); and 0.3-1 (sc), respectively.

Consider `CN1CCc2cc(Cl)c(O)cc2[C@@H]2c3ccccc3CC[C@H]21` [CH2/1/7b(S):7a(R)(+)/Cl/OH], for which the “CAR (MED)” value in data set [2] (po) is on record as >30 (po).

For the molecule `COc1cc2c(cc1O)CCN(C)C1CCCc3ccccc3C21` (stereo not drawn) [CH2/2/trans/HO/CH3O], the Ki on ^3H-23390 binding site was 7.73 µM; on ^3H-Spip binding site it was more than 100 µM. For the same molecule, in [2] (sc), the “CAR (MED)” value was 10 (sc).

With `CN1CCc2cc(Cl)c(O)cc2C2c3ccccc3CC21` (stereo not drawn) [CH2/0/trans/Cl/OH], the figures for the Ki on ^3H-23390 binding site and on ^3H-Spip binding site were 0.01 µM and 2.6 µM, respectively.

Take `COc1cc2c(cc1O)C1c3ccccc3CCC1N(C)CC2` (stereo not drawn) [CH2/1/cis/CH3O/OH]: the inhibition constant Ki on ^3H-23390 binding site is 6.45 µM; on ^3H-Spip binding site, more than 100 µM.

As for `CN1CCc2cc(Cl)c(O)cc2[C@H]2c3ccccc3CC[C@@H]21.Cl` [[^14C]-ecopipam HCl], the “Median time of the maximum observed concentration of total radioactivity in whole blood” value in data set [3] (single oral dose 200 mg) is on record as 2.00 hours postdose. For the same molecule, in data set [3] (setting [12]), the “Arithmetic mean radioactivity recovered in feces” value is 8.27% and the “Arithmetic mean radioactivity recovered in urine” value is reported as 83.3%.

For `Oc1cc2c(cc1Cl)CCNC1CCc3ccccc3C21` (stereo in doubt) [EBS-101-40853], the “Geometric mean AUC ratio of plasma analyte to plasma total radioactivity” value in data set [3] (human, in vivo, po, 200 mg) is 0.00178. Besides, in data set [3] (in vivo, po), the “Percentage of dose excreted in urine as analyte (geometric mean)” value amounted to 0.0645% and the “Share of radioactivity in plasma” value is on record as 0.26%. Moreover, in [3] (in vivo, po, 200 mg), the “Geometric mean apparent terminal elimination half-life (t½) of analyte” value was 25.6 h and the “Geometric mean renal clearance” value was 1.53 L/h. The “Reduction of first pass metabolite concentration vs oral dosage form for oral systemic administration” value in data set [4] is 48-55%.

With `CN1CCc2cc(Cl)c(O[C@@H]3O[C@H](C(=O)O)[C@@H](O)[C@H](O)[C@H]3O)cc2C2c3ccccc3CCC21` (stereo partly drawn) [ecopipam glucuronide, ecopipam O-β-D-glucuronide], in data set [3] (setting [13]), the “Share of radioactivity in plasma” value is on record as 80% and the “Share of radioactivity in the urine” value amounted to 67%. In addition, in data set [5], the “Lower Cmax” value stood at 22%. For the same molecule, the “Lower Cmax” value in [6] came to 23%. In addition, the “Lower Cmax” value in data set [7] came out at 15%. Also, in [8] (setting [14]), the “Ratio of SL/oral AUC” value was determined as 0.15 and the “Ratio of SL/oral Cmax” value was 0.24. Also, in [8] (sublingual / intraoral dosage form), the “Reduction of first pass metabolite concentration vs oral dosage form for oral systemic administration” value is 76-85% and 75-85%.

With `CN1CCc2cc(Cl)c(O)cc2C2c3ccccc3CCC21` (stereo not drawn) [CH2/1/trans/Cl/OH], the results for the “CAR (MED)” value in data set [2] (po) and in data set [2] (sc) were 30 (po); and 0.3 (sc), respectively.

For the molecule `COc1cc2c(cc1O)C1c3ccccc3CCCC1N(C)CC2` (stereo not drawn) [CH2/2/trans/CH3O/OH], the figures for the Ki at ^3H-23390 binding site and at ^3H-Spip binding site were 0.292 µM and more than 100 µM, respectively. In addition, the “CAR (MED)” value in [2] (sc) was 10 (sc).

Consider `CN1CCc2cc(Cl)c(O)cc2[C@H]2c3ccccc3CC[C@@H]21` [ecopipam, (−)-trans-6,7,7a,8,9,13b-hexahydro-3-chloro-2-hydroxy-N-methyl-5H-benzo [d]-naphtho-[2,1-b]azepine], for which the half-life in data set [3] (male, human, plasma, single oral dose 200 mg [14C]-ecopipam HCl, read-out: Geometric mean apparent terminal elimination half-life (t½) of analyte (converted)) was 17.3 h. Besides, in data set [3] (male, human, urine, single oral dose 200 mg [14C]-ecopipam HCl, read-out: Geometric mean renal clearance (converted)), the CL renal was 4.73 mL/min. In addition, the “Share of the radiolabeled dose found as ecopipam in plasma” value in data set [3] (oral systemic administration) was “about 1.69%”. In data set [3] (setting [15]), the “Median time of the maximum observed concentration of analyte in plasma” value came to 2.00 hours postdose; the “Percentage of dose excreted in urine as analyte (geometric mean)” value was less than 1%; the “Unchanged compound in feces, share of the total administered dose” value worked out at 6%. Moreover, the “Increase in odds of being a responder at 12 weeks per 100 unit increase in combined steady-state AUC of ecopipam and EBS-101-40853” value in data set [9] is reported as 6.8%. For the same molecule, the “10 msec increase in ΔΔQTcF interval” value in [10] (single dose ecopipam 179.2 mg + a general UGT inhibitor) was “cannot be ruled out”. Further, the “10 msec increase in ΔΔQTcF interval” value in data set [10] (single dose ecopipam 179.2 mg) is on record as “can be ruled out”. Also, in data set [10] (setting [16]), the “Effect on QTcF” value was “increase” and the “Predicted increase in ΔΔQTcF interval” value is reported as “up to 20.4 msec”. Also, the “Effect on HR, QRS, or PR intervals” value in data set [10] (single doses 179.2 mg and 537.6 mg) is reported as “no effect”. Moreover, in data set [11], the “Exposure-response relationship for QTc” value was “exposure-response relationship”; the “Relationship between plasma Cmax or AUCinf and choice reaction time or visual analogue scale for sedation” value is “no relationship”. Also, in data set [5], the “Lower Cmax and AUC∞” value is “substantially (72-77%) lower Cmax”. In [6], the “Increase in AUC∞” value was 40853 glucuronide, a ~2.1x increase.

The Ki is the equilibrium dissociation constant of an inhibitor or competing ligand from its target. One may read the solubility as the concentration that dissolves in the medium under given conditions. A higher solubility goes with a readily soluble substance. As usually defined, the Solubility is the concentration that dissolves in the medium under given conditions. Low readings indicate little dissolved substance, high ones much dissolved substance. For orientation: half-life means the time in which the quantity being followed falls by half.
